# Source: US6057294A, “Peptide” (Northern Sydney Area Health Service of Pacific Highway, priority 1995, dated 2000)
# Ends that are not written are not given here.
# Experiments:
# [1] = system: diabetes in NOD/Lt (F) mice; experiment: Cyclophosphamide induced diabetes in NOD/Lt (F) mice; type: in vivo, mouse; details: for PERCENTAGE OF MICE DEVELOPING DIABETES: 250 μg s.c. on Day -1, 0 and 1, n = 16
# Procedure: In yet another model of T-cell mediated disease the effects of subcutaneously injected core peptide on the induction of diabetes in NOD/Lt (F) mice was tested "blind" by an independent experimenter (Prof L Harrison, WEHI, Melbourne). NOD/Lt(F) mice 10 weeks old at experimental Day 0. This is a high-incidencestrain commonly used as an animal model for diabetes. Core peptide dissolved in squalane at a stock concentration of 3.33 mg/ml. Ovalbumin used as a control was suspended in squalane at a stock concentration of 3.33 mg/ml. Peptide and ovalbumin were "solubilised" just prior to injection, with vortexing. A total of 250 μg (75 μl) was injected subcutaneously on the right flank on Day -1, 0 and 1. Mice were given intraperitoneal cyclophosphamide in water at 300 mg/kg on Day 0. Blood glucose measurements were taken on Day 0, 10, 14 and 21. There were 16 mice in the treatment group and 16 in the ovalbumin control group.
# [2] = system: adjuvant induced arthritis in rats; experiment: Adjuvant induced arthritis in rats; type: in vivo, rat; details: for EFFECT: peptides 7 mg/rat, CS 50 mg/kg, DXM 2 mg/kg, given with MTB adjuvant; for tail thickness: n = 5
# [3] = system: 2B4.11 T-cell activation (IL-2 production); experiment: Antigen presentation assay (IL-2 production by 2B4.11 T-cells, CTLL proliferation readout); type: cell-based; details: 100 μM
# From the text: An antigen presentation assay (described below) examined the ability of a number of peptides to inhibit T-cell activation following antigen recognition, by measuring the product of T-cell activation, Interleukin-2 (IL-2).
# Material. The following cell lines were used: 2B4.11, a T-cell hybridoma that expresses a complete antigen receptor on the cell surface (Samelson et al., 1983) and produces IL-2 following antigen recognition (cytochrome c). Interleukin-2 dependent T-cell line (CTLL) for conventional biological IL-2 assays; and the B-cell hybridoma cell line LK 35.2 (LK, I-E^k bearing; Kappler et al., 1982) which acts as the antigen presenting cell. The hybridomas were grown in TCM. Cytochrome c (Sigma, USA) was added in the media to give a final concentration of 50 μM in the antigen presenting assay.
# Peptides examined included: core peptide, seven other control peptides from a variety of sources having an equivalent length to core peptide and peptides A, B, C, D, E and F. The final concentration of the peptides in the antigen presentation assay was examined at several levels ranging from 10 μM to 100 μM.
# Method. […] Supernatants were recovered and IL-2 content determined by CTLL proliferation. […] In addition to measuring ^3 H-thymidine incorporation, IL-2 measurements (IU/ml) were also determined. […]
# [4] = system: TCR on 2B4.11 cells; experiment: TCR assembly and cell surface expression on T-cells by flow cytometry; type: cell-based
# Procedure: The T-cell hybridoma 2B4.11 which expresses a complete TCR on the cell surface was used as a positive control to assess the effects of peptides on TCR expression. The cells were grown in TCM. The β-deficient variant 21.2.2 and the β- and .zeta.-deficient cell line 3.12.29, derived by repetitive subcloning of 2B4.11 cells (Sussman et al., 1988) and lacking TCR expression were used as negative controls.
# Peptides tested included core peptide, lipopeptides and a peptide from tumor necrosis factor receptor termed 558 (used as a negative control). […]
# The following antibodies were used for immuno-precipitation and flow cytometry analysis: Mouse IgG2a monoclonal antibody (MAb) against TCR-α chain of the T-cell hybridoma 2B4 (A2B4-2, Samelson et al., 1983), MAb against 2B4.11 TCR-β chain (K)25), hamster IgG anti-CD3-ε MAb (145-2C11 [2C11], Leo et al., 1987), rabbit anti-CD3-ε polyclonal antiserum raised against purified mouse CD3-ε (127, Minami et al., 1987), anti-CD3-δ polyclonal antibody (R9) raised in goat immunized with a COOH-terminal peptide of the mouse CD3-δ chain (Samelson et al., 1986).
# FACS analysis: 1×10^6 (2B4.11, 21.2.2) cells were incubated with a number of separate peptides and lipopeptides in a final concentration of 10 μM overnight. The cells were then wvashed with PBS and incubated with 50 μl primary antibody (A2B4 or 2C11) for 30 mins at 4° C. […]
# [5] = system: experimental allergic neuritis in Lewis rats; experiment: Experimental allergic neuritis (EAN); type: in vivo, rat; details: peptide added to immunisation emulsion at 70 mg/ml
molecule,measurement,setting,value
"Ovalbumin: Ovalbumin used as a control, suspended in squalane [reference compound]",PERCENTAGE OF MICE DEVELOPING DIABETES,[1]; DAY 0,0%
same,PERCENTAGE OF MICE DEVELOPING DIABETES,[1]; DAY 10,0%
same,PERCENTAGE OF MICE DEVELOPING DIABETES,[1]; DAY 14,42%
same,PERCENTAGE OF MICE DEVELOPING DIABETES,[1]; DAY 21,65%
"C[C@@H]1C[C@H]2[C@@H]3CCC4=CC(=O)C=C[C@]4(C)[C@@]3(F)[C@@H](O)C[C@]2(C)[C@@]1(O)C(=O)CO [DXM, dexamethasone, reference compound]",onset of arthritis delayed by,[2]; 2 mg/kg,3 to 4 days
same,EFFECT,[2],No effect
"CCCCCCCCCCCCCCCC(=O)O [Palmitic acid, reference compound]",effect on IL-2 production,[3],did not affect IL-2 production
GLRILLLKV [core peptide],cell surface expression of TCR,"[4]; 10 μM, overnight, 2B4.11 cells",did not alter the cell surface expression
same,T-cell surface antigen receptor expression,"[4]; 100 μM, incubation 1-10 days",no change in T-cell surface antigen receptor expression
same,reduction in IL-2 production compared to control,[3],15%-30%
same,PERCENTAGE OF MICE DEVELOPING DIABETES,[1]; DAY 0,0%
same,PERCENTAGE OF MICE DEVELOPING DIABETES,[1]; DAY 10,0%
same,PERCENTAGE OF MICE DEVELOPING DIABETES,[1]; DAY 14,5%
same,PERCENTAGE OF MICE DEVELOPING DIABETES,[1]; DAY 21,12%
same,effect on the induction of autoimmune beta cell destruction (diabetes),"[1]; mouse, in vivo",protective effect
same,induction and clinical severity of EAN,[5],delayed induction and clinical severity of disease
same,EFFECT OF PEPTIDE,[2]; 1.7 mg,No effect
same,EFFECT OF PEPTIDE,[2]; 3.5 mg,Protective
same,EFFECT OF PEPTIDE,[2]; 7 mg,Protective
same,tail thickness,"[2]; DAY 5, MTB + peptide",7.62 mm
same,tail thickness,"[2]; DAY 10, MTB + peptide",8.24 mm
same,tail thickness,"[2]; DAY 15, MTB + peptide",8.76 mm
same,tail thickness,"[2]; DAY 20, MTB + peptide",8.96 mm
same,tail thickness,"[2]; DAY 25, MTB + peptide",9.10 mm
same,ulceration and inflammation at the site of injection,[2]; compared with MTB alone,not present
same,effect on adjuvant arthritis,[2]; comparison among peptides,Best results
same,animals with no evidence of arthritis,"[2]; first experiment, 3 rats per group, 0.1 ml suspension in adjuvant, after 18 days",2/3
same,EFFECT,[2],Protective
same,difference in tail measurements versus saline injected rats,"[2]; rat, in vivo",not statistically significant
